# Assay results reported in patent US11365199B2, “Pyrazole compounds as modulators of FSHR and uses thereof” (Merck Patent GmbH, priority 2013, dated 2022).
# Experiments:
# FSHR = biological target: T1, FSHR (Homo sapiens, UniProt P23945); test: EC50 of cyclic AMP production in CHO FSHR cells + EC20 FSH (Assay A); format: cell-based; details: CHO FSHR cells + EC20 FSH, cAMP HTRF; read-out: Assay A: EC50 of cyclic AMP production
# T1 construct: expressed in transfected cells; host or cells: CHO (Cho-FSHR-LUC-1-1-43)
# T1 sequence (P23945 18-695): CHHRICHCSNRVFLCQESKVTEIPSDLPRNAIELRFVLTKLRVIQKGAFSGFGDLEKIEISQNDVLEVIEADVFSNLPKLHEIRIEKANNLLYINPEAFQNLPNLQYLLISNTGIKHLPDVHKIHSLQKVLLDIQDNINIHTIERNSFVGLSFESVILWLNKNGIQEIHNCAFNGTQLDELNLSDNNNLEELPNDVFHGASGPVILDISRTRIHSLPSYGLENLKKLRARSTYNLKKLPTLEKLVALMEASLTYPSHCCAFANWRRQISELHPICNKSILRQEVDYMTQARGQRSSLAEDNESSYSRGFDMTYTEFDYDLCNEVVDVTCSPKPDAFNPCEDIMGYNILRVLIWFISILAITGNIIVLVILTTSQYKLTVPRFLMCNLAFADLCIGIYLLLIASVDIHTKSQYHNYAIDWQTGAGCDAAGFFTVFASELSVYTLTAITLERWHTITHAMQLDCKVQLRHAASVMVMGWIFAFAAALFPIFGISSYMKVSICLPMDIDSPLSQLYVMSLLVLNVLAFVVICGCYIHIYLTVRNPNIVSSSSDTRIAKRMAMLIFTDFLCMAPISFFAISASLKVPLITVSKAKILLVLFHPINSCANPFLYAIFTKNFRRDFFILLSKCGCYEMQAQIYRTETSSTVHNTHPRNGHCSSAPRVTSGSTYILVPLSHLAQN
# Method in brief: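 Cho-FSHR-LUC cells were exposed to compound dilution series with EC20 FSH ([…]) and 200 μM IBMX for 1 h at 37° C. cAMP was read by HTRF (665/620 nm ratio). Effects are percent of the maximal FSH standard response.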
# [1] = biological target: T2, follicle-stimulating hormone (FSH) receptor (Rattus norvegicus, UniProt P20395); test: Rat granulosa EC50 FSH (Assay B); format: cell-based; details: rat granulosa cells; read-out: Assay B: Rat granulosa EC50 FSH
# T2 construct: endogenous in cells; host or cells: primary rat granulosa cells
# T2 sequence (P20395 18-692): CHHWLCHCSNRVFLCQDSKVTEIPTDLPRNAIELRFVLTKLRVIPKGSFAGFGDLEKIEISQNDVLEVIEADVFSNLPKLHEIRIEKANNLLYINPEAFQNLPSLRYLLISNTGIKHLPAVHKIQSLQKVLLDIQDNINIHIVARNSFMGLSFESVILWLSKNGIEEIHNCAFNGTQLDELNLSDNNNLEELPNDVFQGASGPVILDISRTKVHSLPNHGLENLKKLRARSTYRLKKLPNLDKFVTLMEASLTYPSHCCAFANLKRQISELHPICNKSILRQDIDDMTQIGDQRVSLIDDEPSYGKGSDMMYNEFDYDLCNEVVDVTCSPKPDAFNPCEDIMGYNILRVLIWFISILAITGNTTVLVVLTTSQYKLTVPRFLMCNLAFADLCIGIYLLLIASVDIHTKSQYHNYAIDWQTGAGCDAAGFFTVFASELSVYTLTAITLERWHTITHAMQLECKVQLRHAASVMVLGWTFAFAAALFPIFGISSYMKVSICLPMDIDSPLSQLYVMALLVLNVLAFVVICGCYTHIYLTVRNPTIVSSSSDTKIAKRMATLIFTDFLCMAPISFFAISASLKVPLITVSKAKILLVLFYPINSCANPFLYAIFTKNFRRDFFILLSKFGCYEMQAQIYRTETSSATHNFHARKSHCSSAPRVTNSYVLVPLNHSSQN
# Procedure: Rat Granulosa EC50 FSH (Assay B)
# The assay was performed pursuant to the teaching of Yanofsky et al. (2006) Allosteric activation of the follicle-stimulating hormone (FSH) receptor by selective, nonpeptide agonists (JBC 281(19): 13226-13233, which is incorporated by reference in the disclosure of the invention).
Compound,EC50 (FSHR) [nM],EC50 [1] [nM]
"COc1cc2c(cc1CC(C)C)-c1c(c(C(=O)N3CCCN(C(=O)C4CCCO4)CC3)nn1-c1ccsc1)CO2 (centres unmarked) [Compound 21, (8-Isobutyl-7-methoxy-1-thiophen-3-yl-1,4-dihydro-chromeno[4,3-c]pyrazol-3-yl)-[4-(tetrahydro-furan-2-carbonyl)-[1,4]diazepan-1-yl]-methanone]",100 to 1000,> 5000
"COc1cc2c(cc1C=C(C)C)-c1c(c(C(=O)N(C)CCN3CCOC3=O)nn1-c1ccsc1)CO2 [Compound 23, 7-Methoxy-8-(2-methyl-propenyl)-1-thiophen-3-yl-1,4-dihydro-chromeno[4,3-c]pyrazole-3-carboxylic Acid methyl-[2-(2-oxo-oxazolidin-3-yl)-ethyl]-amide]",< 100,< 100
"COC(=O)C1CCCN(C(=O)c2nn(-c3ccsc3)c3c2COc2cc(OC)c(OC(C)C)cc2-3)CC1 (centres unmarked) [Compound 24, 1-(8-Isopropoxy-7-methoxy-1-thiophen-3-yl-1,4-dihydro-chromeno[4,3-c]pyrazole-3-carbonyl)-azepane-4-carboxylic acid methyl ester]",< 100,1000 to 5000
"COc1cc2c(cc1OC(C)C)-c1c(c(C(=O)N3CCCC(C(=O)N4CCC4)CC3)nn1-c1ccsc1)CO2 (centres unmarked) [Compound 26, [4-(Azetidine-1-carbonyl)-azepan-1-yl]-(8-isopropoxy-7-methoxy-1-thiophen-3-yl-1,4-dihydro-chromeno[4,3-c]pyrazol-3-yl)-methanone]",1000 to 5000,> 5000
"COc1cc2c(cc1OC(C)C)-c1c(c(C(=O)NCCCNC(=O)C3CCC3)nn1-c1ccsc1)CO2 [Compound 28, 8-Isopropoxy-7-methoxy-1-thiophen-3-yl-1,4-dihydro-chromeno[4,3-c]pyrazole-3-carboxylic Acid [3-(cyclobutanecarbonyl-amino)-propyl]-amide]",> 5000,> 5000
"COc1cc2c(cc1C(N)=O)-c1c(c(C(=O)N(C)C(C)(C)C)nn1-c1ccsc1)CO2 [Compound 50, 7-Methoxy-1-thiophen-3-yl-1,4-dihydro-chromeno[4,3-c]pyrazole-3,8-dicarboxylic Acid 8-amide 3-(tert-butyl-methyl-amide)]",< 100,100 to 1000
"COc1cc2c(cc1SC(C)C)-c1c(c(C(=O)N(C)C(C)(C)C)nn1-c1ccsc1)CO2 [Compound 52, 8-isopropylsulfanyl-7-methoxy-1-thiophen-3-yl-1,4-dihydro-chromeno[4,3-c]pyrazole-3-carboxylic Acid tert-butyl-methyl-amide]",< 100,100 to 1000
"COc1cc2c(cc1-c1ccn(C)n1)-c1c(c(C(=O)N(C)C(C)(C)C)nn1-c1ccsc1)CO2 [Compound 63, 7-Methoxy-8-(1-methyl-1H-pyrazol-3-yl)-1-thiophen-3-yl-1,4-dihydro-chromeno[4,3-c]pyrazole-3-carboxylic acid tert-butyl-methyl-amide]",< 100,100 to 1000
"COc1cc2c(cc1S(=O)(=O)C(C)C)-c1c(c(C(=O)N(C)C(C)(C)C)nn1-c1ccsc1)CO2 [Compound 79, 7-methoxy-8-(propane-2-sulfonyl)-1-thiophen-3-yl-1,4-dihydro-chromeno[4,3-c]pyrazole-3-carboxylic Acid tert-butyl-methyl-amide]",< 100,> 5000
[2H]C([2H])([2H])N(CCN(C(=O)c1nn(-c2ccsc2)c2c1COc1cc(OC)c(CC(C)C)cc1-2)C([2H])([2H])[2H])C(C)=O [Compound 82],< 100,1000 to 5000
[2H]C([2H])([2H])OCC(C)(C)N(C(=O)c1nn(-c2ccsc2)c2c1COc1cc(OC)c(CC(C)C)cc1-2)C([2H])([2H])[2H] [Compound 83],< 100,100 to 1000
"COc1cc2c(cc1CC(C)C)-c1c(c(C(=O)N(C)C(C)(C)C)nn1-c1cccs1)CO2 [Compound 91, 8-Isobutyl-7-methoxy-1-thiophen-2-yl-1,4-dihydro-chromeno[4,3-c]pyrazole-3-carboxylic Acid tert-butyl-methyl-amide]",< 100,1000 to 5000
"COc1cc2c(cc1-c1ccc(C)s1)-c1c(c(C(=O)N(C)C(C)(C)C)nn1-c1ccsc1)CO2 [Compound 93, 7-Methoxy-8-(5-methyl-thiophen-2-yl)-1-thiophen-3-yl-1,4-dihydro-chromeno[4,3-c]pyrazole-3-carboxylic acid tert-butyl-methyl-amide]",< 100,100 to 1000
"COc1cc2c(cc1-c1ccn(C)n1)-c1c(c(C(=O)N3CCOCC3(C)C)nn1-c1ccsc1)CO2 [Compound 94, (3,3-Dimethyl-morpholin-4-yl)-[7-methoxy-8-(1-methyl-1H-pyrazol-3-yl)-1-thiophen-3-yl-1,4-dihydro-chromeno[4,3-c]pyrazol-3-yl]-methanone]",< 100,100 to 1000
"COc1cc2c(cc1-c1c[nH]nc1C)-c1c(c(C(=O)N3CCOCC3(C)C)nn1-c1ccsc1)CO2 [Compound 95, (3,3-Dimethyl-morpholin-4-yl)-[7-methoxy-8-(3-methyl-1H-pyrazol-4-yl)-1-thiophen-3-yl-1,4-dihydro-chromeno[4,3-c]pyrazol-3-yl]-methanone]",< 100,100 to 1000
[2H]C([2H])([2H])n1cc(-c2cc3c(cc2OC)OCc2c(C(=O)N4CCOCC4(C)C)nn(-c4ccsc4)c2-3)cn1 [Compound 96],< 100,100 to 1000
"COc1cc2c(cc1SCC(C)C)-c1c(c(C(=O)N3CCOCC3(C)C)nn1-c1ccsc1)CO2 [Compound 97, (3,3-Dimethyl-morpholin-4-yl)-(8-isobutylsulfanyl-7-methoxy-1-thiophen-3-yl-1,4-dihydro-chromeno[4,3-c]pyrazol-3-yl)-methanone]",100 to 1000,100 to 1000
"COc1cc2c(cc1-c1ccn(C)c1)-c1c(c(C(=O)N3CCOCC3(C)C)nn1-c1ccsc1)CO2 [Compound 98, (3,3-Dimethyl-morpholin-4-yl)-[7-methoxy-8-(1-methyl-1H-pyrrol-3-yl)-1-thiophen-3-yl-1,4-dihydro-chromeno[4,3-c]pyrazol-3-yl]-methanone]",< 100,1000 to 5000
"COc1cc2c(cc1-c1ccn(C)c1)-c1c(c(C(=O)NC3(C)COC3)nn1-c1ccsc1)CO2 [Compound 99, 7-Methoxy-8-(1-methyl-1H-pyrrol-3-yl)-1-thiophen-3-yl-1,4-dihydro-chromeno[4,3-c]pyrazole-3-carboxylic acid (3-methyl-oxetan-3-yl)-amide]",100 to 1000,100 to 1000
"COc1cc2c(cc1-c1ccns1)-c1c(c(C(=O)N(C)C(C)(C)C)nn1-c1ccsc1)CO2 [Compound 105, 8-Isothiazol-5-yl-7-methoxy-1-thiophen-3-yl-1,4-dihydro-chromeno[4,3-c]pyrazole-3-carboxylic acid tert-butyl-methyl-amide]",< 100,< 100
"COc1cc2c(cc1-c1ccnn1C)-c1c(c(C(=O)N3CCOCC3(C)C)nn1-c1ccsc1)CO2 [Compound 108, (3,3-Dimethyl-morpholin-4-yl)-[7-methoxy-8-(2-methyl-2H-pyrazol-3-yl)-1-thiophen-3-yl-1,4-dihydro-chromeno[4,3-c]pyrazol-3-yl]-methanone]",< 100,1000 to 5000
[2H]C([2H])([2H])OCC1(N(C(=O)c2nn(-c3ccsc3)c3c2COc2cc(OC)c(-c4ccn(C)c4)cc2-3)C([2H])([2H])[2H])COC1 [Compound 113],< 100,100 to 1000
